Laboratory results taken from publication PMC10485820 (European Journal of Pharmaceutical Sciences, 2023).
Where two headings read alike, the source gives them in different places.

Legend:
[1] = test system: primary human plated hepatocytes; experiment: Metabolic stability in human plated hepatocytes; conditions: incubation up to 48 h, HSK7653 at 0.05 μM
Experimental: Reactions were stopped by removing the plates from the incubator and mixing the incubation solution with 600 μL of ice-cold stop solution (acetonitrile) at the corresponding sampling time points.

[2] = Apparent permeability in Caco-2 monolayer cell lines; type: in vitro ADME; conditions: human, Caco-2, positive controls
Experimental: All experiments were performed in triplicate and analyzed by high-performance liquid chromatography with tandem mass spectrometry (HPLC-MS/MS). The apparent permeability coefficient (Papp) of each compound under the corresponding concentration was calculated according to Eq. (1) and listed as follows:(1) Papp=dQ/dt×1/A×C0 Where Papp was the apparent permeability coefficient (cm/s × 10^−6), dQ/dt (pmol/second) was the rate at which the compound appears in the receiver side, C0 (nM) was the initial concentration of the compound in the donor side, and A (cm^2) represented the surface area of the cell monolayer.

Half-life (t1/2) in human hepatocytes [1] | Papp at 2 h ([2]; read-out: Papp) | Papp at 2 h ([2]; apical pH: basolateral pH 7.4: 7.4, read-out: Caco-2 permeability, calibration input) | SMILES
21.7 h |  |  | CC[C@@]1(c2ccccc2)NC(=O)N(C)C1=O [S-mephenytoin]
 | 1.85 ×10⁻⁶ cm/s |  | C[C@H]1O[C@@H](O[C@H]2[C@@H](O)C[C@H](O[C@H]3[C@@H](O)C[C@H](O[C@H]4CC[C@@]5(C)[C@H](CC[C@@H]6[C@@H]5C[C@@H](O)[C@]5(C)[C@@H](C7=CC(=O)OC7)CC[C@]65O)C4)O[C@@H]3C)O[C@@H]2C)C[C@H](O)[C@@H]1O [digoxin, reference compound]
 | 33 ×10⁻⁶ cm/s | 33 ×10⁻⁶ cm/s | CC(C)NCC(O)COc1cccc2ccccc12 (stereo not shown) [propranolol, reference compound]
